Values quoted from earlier work as cited in US20120289567A1, “COMBINATIONS OF DARIFENACIN AND SALIVARY STIMULANTS FOR THE TREATMENT OF OVERACTIVE BLADDER” (THERAVIDA, INC., priority 2011, published 2012).

Settings: 5 mg of pilocarpine

Structure (SMILES): CC[C@@H]1C(=O)OC[C@@H]1Cc1cncn1C [pilocarpine]
- time of maximum saliva output after administration: about 30 minutes
